Values quoted from earlier work in patent publication US12435094B1, “Methods of preparing isomers, analogs, and synthetic derivatives from akuamma seeds” (priority 2024, dated 2025).

Legend:
mu opioid receptor (μOR) = mu opioid receptor (μOR) (Homo sapiens, UniProt P35372); settings: background statement, no data shown
[1] = test system: animal models of antinociception; settings: background statement, no data shown

mu opioid receptor (μOR), sequence (P35372 whole entry, species assumed): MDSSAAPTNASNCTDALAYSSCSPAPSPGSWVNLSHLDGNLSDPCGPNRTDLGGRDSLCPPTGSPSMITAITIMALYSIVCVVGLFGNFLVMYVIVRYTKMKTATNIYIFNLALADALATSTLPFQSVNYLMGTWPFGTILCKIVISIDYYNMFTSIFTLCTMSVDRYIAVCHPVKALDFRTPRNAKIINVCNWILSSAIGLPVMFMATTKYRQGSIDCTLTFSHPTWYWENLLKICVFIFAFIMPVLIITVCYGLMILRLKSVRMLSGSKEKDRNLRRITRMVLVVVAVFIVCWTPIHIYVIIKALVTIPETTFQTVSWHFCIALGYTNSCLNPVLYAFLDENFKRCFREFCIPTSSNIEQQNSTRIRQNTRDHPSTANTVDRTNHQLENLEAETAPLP

For `C/C=C1/CN2CC[C@@]34c5ccccc5N(C)[C@]35OCC4(C(=O)OC)[C@@H]1C[C@H]25` [pseudoakuammigine, Pseudoakuammigine], the “agonism of the mu opioid receptor (μOR)” value (mu opioid receptor (μOR)) is given as “weak agonists” and the “effects in animal models of antinociception” value [1] is given as “minimal effects”.

For Akuammine, the “agonism of the mu opioid receptor (μOR)” value (mu opioid receptor (μOR)) is given as “weak agonists” and the “effects in animal models of antinociception” value [1] is given as “minimal effects”.
